From US8895502B2, “β2-glycoprotein I peptide inhibitors” (Kansas State University Research Foundation, priority 2010, dated 2014)
Entries after “also recorded” stand apart in the source; their conditions may differ. Ends that are not written are not given here.

Experiments:
Format in all cases: in vivo, mouse
LTB4 = experiment: Intestinal IR, ex vivo LTB4 generation; set-up: key to LTB4 Production: + indicates significant difference from Sham treated mice; − indicates not significantly different from C57B1/6 sham treated mice; +/− indicates no significant difference from either C57B1/6 mice subjected to either Sham or IR; settings: for LTB4 Production: C57Bl/6 mice subjected to IR, peptide 40 μM i.v. 5 min prior to artery occlusion; for IR-induced intestinal LTB4 production: C57Bl/6 mice, peptide 40 μM prior to IR
Procedure: (§1) C57Bl/6 and Rag-1^−/− mice were subjected to ischemia followed by reperfusion similar to previously described studies (Moses, T. et al., J. Leukoc. Biol. 86:971-980 (2009)). Briefly, ketamine (16 mg/kg) and xylazine (80 mg/kg) were used to anesthetize the mice. Buprenorphine (0.06 mg/kg) was then administered for pain. A midline laparotomy was performed to expose the abdominal cavity of the mice, which were then allowed to equilibrate for 30 min. Body temperature was maintained at 37° C. using a water-circulating heat pad. Placing a warm, saline moistened piece of gauze over the abdominal cavity prevented peritoneal desiccation. […] Ischemia was noted by the intestine changing from a pink color to a gray color. After 30 min of ischemia, the clamp was removed and the intestines were allowed to reperfuse for 5, 10, 15, or 120 min. […] Mice treated with the various β2-GPI peptides underwent the same procedure with i.v. administration of the peptides (40 μM) 5 min prior to artery occlusion. Peptides 296, 305, and 296Cys to Ser were dissolved in N. Saline (0.9% NaCl) and injected i.v. in 100-μL volumes. Peptides 100 and 181 were dissolved in DMSO prior to diluting 1/100 in N. Saline. Additional mice received peptides prior to Sham treatment.
(§2) Ex vivo generation of eicosanoids by mid-jejunal tissue was determined. Immediately after collection, a 2-cm intestinal section from each mouse was minced, washed, resuspended in 37° C. oxygenated Tyrode's buffer (Sigma-Aldrich; St. Louis, Mo.), incubated at 37° C. for 20 minutes, and the supernatant collected. PGE2 and LTB4 concentrations were determined using enzyme immunoassay kits (Cayman Chemical; Ann Arbor, Mich.). IL-6 and IL-12 concentrations were determined using a Milliplex MAP immunoassay kit (Millipore) and read on a Milliplex Analyzer (Millipore). All eicosanoid and cytokine concentrations were standardized to the total tissue protein content.
(§3) Total peroxidase, LTB4, PGE2, IL-6, IL-12p40, and IL-12p70 concentrations were determined using the procedures described in Example 1.

C57Bl/6 mice = experiment: Intestinal ischemia/reperfusion, mucosal injury score; set-up: key to Injury: + indicates significant difference from Sham treated mice; − indicates not significantly different from C57B1/6 sham treated mice; +/− indicates no significant difference from either C57B1/6 mice subjected to either Sham or IR; settings: for IR-induced intestinal mucosal damage (injury score): C57Bl/6 mice, peptide 40 μM i.v. 5 min prior to ischemia, 2 hours reperfusion; for IR-induced intestinal injury: Example 2, peptides administered after reperfusion (15-, 30-, or 60-minutes post-reperfusion)
Procedure: as §1
Immediately after euthanasia, a 2-cm mid jejunum tissue section was immediately fixed in 10% buffered formalin, embedded in paraffin, and 8 μm sections were cut transversely and hematoxylin and eosin (H&E) stained. Mucosal injury was graded on a six-tiered scale, as described previously (Fleming, S. D. et al., J. Immunol. 169:2126-2133 (2002)). Briefly, the average damage score of the intestinal section (75-150 villi) was determined after grading each villus. […] Photomicrographs were obtained from H&E stained slides using a 20×, 0.5 Plan Fluor objective on a Nikon 80i microscope and images acquired at room temperature using a Nikon DS-5M camera with DS-L2 software.
Ischemia/reperfusion was performed on ketamine/xylazine anesthetized mice as described in Example 1 above. After 2 hours of reperfusion, the mice were euthanized and sera, liver, spleen, and 2 cm sections of the small intestine, approximately 10 cm distal to the gastroduodenal junction, were collected for histological and other analyses. Mice treated with the various β2-GPI peptides underwent the same procedure with i.v. administration of the peptides. Most studies assumed 2 mL total blood volume in a mouse and administered peptides to a final concentration of 40 μM at 5 min prior to ischemia. Dose response studies administered 1-40 μM peptide at 5 min prior to ischemia and time course studies administered 40 μM peptide at 5 min prior to ischemia, and at 15-, 30- or 60-min post-ischemia (i.e., during reperfusion).
After euthanasia, tissue sections were fixed and stained following the procedures outlined in Example 1. Mucosal injury (SMI) was also graded on a six-tiered scale, as described in Example 1.

CD106 (VCAM-1) = experiment: Intestinal IR, VCAM immunohistochemistry; settings: C57Bl/6 mice, peptide prior to IR, data not shown
Procedure: as §1, with “Peptides 100 and 181 were dissolved in DMSO prior to diluting 1/100 in N. Saline. Additional mice received peptides prior to Sham treatment.” left out
After euthanasia, an additional 2-cm intestinal section from each mouse was immediately snap frozen in O.C.T. freezing medium and 8 μm sections were placed on slides for immunohistochemistry. The C3 deposition and F4/80 expression on the tissue sections were detected by staining with a purified rat-anti-mouse C3 (Hycult Biotechnologies; Plymouth Meeting, Pa.) or F4/80 (eBioscience; San Diego, Calif.) antibody followed by a Texas-red conjugated donkey-anti-rat IgG secondary antibody (Jackson Immunoresearch). CD31 (PECAM-1) and CD106 (VCAM-1) were detected by FITC conjugated rat anti-mouse CD31 or CD106 (Biolegend; San Diego, Calif.) antibodies. […] Images were obtained at room temperature using a Nikon Eclipse 80i microscope equipped with a CoolSnap CF camera (Photometrics) and analyzed using Metavue software (Molecular Devices). The fluorescence was semi-quantitated using Image J software (NIH) using the fluorescent area fraction after setting threshold for each experiment. […]

IL-12 = experiment: Intestinal IR, ex vivo IL-12 generation; set-up: key to IL-12p40 Induction: + indicates significant difference from Sham treated mice; − indicates not significantly different from C57B1/6 sham treated mice; +/− indicates no significant difference from either C57B1/6 mice subjected to either Sham or IR; settings: for IL-12p40 Induction: C57Bl/6 mice subjected to IR, peptide 40 μM i.v. 5 min prior to artery occlusion; for IR induced IL-12 production: C57Bl/6 mice, peptide prior to IR
Procedure: as §1, §2, §3

C3 = experiment: Intestinal IR, C3 deposition immunohistochemistry; set-up: key to C3 Deposition: + indicates significant difference from Sham treated mice; − indicates not significantly different from C57B1/6 sham treated mice; +/− indicates no significant difference from either C57B1/6 mice subjected to either Sham or IR; settings: for C3 Deposition: C57Bl/6 mice subjected to IR, peptide 40 μM i.v. 5 min prior to artery occlusion; for C3 deposition / complement activation after IR: C57Bl/6 mice, peptide infused prior to IR
Procedure: as §1
After euthanasia, an additional 2-cm intestinal section from each mouse was immediately snap frozen in O.C.T. freezing medium and 8 μm sections were placed on slides for immunohistochemistry. The C3 deposition and F4/80 expression on the tissue sections were detected by staining with a purified rat-anti-mouse C3 (Hycult Biotechnologies; Plymouth Meeting, Pa.) or F4/80 (eBioscience; San Diego, Calif.) antibody followed by a Texas-red conjugated donkey-anti-rat IgG secondary antibody (Jackson Immunoresearch). CD31 (PECAM-1) and CD106 (VCAM-1) were detected by FITC conjugated rat anti-mouse CD31 or CD106 (Biolegend; San Diego, Calif.) antibodies. Each experiment contained serial sections stained with the appropriate isotype control antibodies. All slides were mounted with ProLong Gold (Invitrogen). Images were obtained at room temperature using a Nikon Eclipse 80i microscope equipped with a CoolSnap CF camera (Photometrics) and analyzed using Metavue software (Molecular Devices). The fluorescence was semi-quantitated using Image J software (NIH) using the fluorescent area fraction after setting threshold for each experiment. The average of the isotype control was subtracted from each photo.

[1] = C57Bl/6 mice subjected to IR, peptide 40 μM i.v. 5 min prior to artery occlusion
[2] = 10 μM peptide 5 min prior to IR
[3] = administered at 60 min post-reperfusion
[4] = administered at either 5- or 15-min post-reperfusion, 2-hour assay
[5] = treatment at both 30 min and 60 min post-reperfusion

Substance | LTB4 Production (LTB4) | IR-induced intestinal LTB4 production (LTB4) | Injury (C57Bl/6 mice; [1]) | IR-induced intestinal mucosal damage (injury score) (C57Bl/6 mice) | expression of adhesion molecule VCAM after IR (CD106 (VCAM-1)) | IL-12p40 Induction (IL-12) | IR induced IL-12 production (IL-12) | C3 Deposition (C3) | C3 deposition / complement activation after IR (C3) | intestinal damage (C57Bl/6 mice; 4 μM peptide 5 min prior to IR) | Injury (C57Bl/6 mice; [2]) | IR-induced intestinal mucosal damage (injury score) (C57Bl/6 mice; listed as 296c-s) | IR-induced intestinal injury (C57Bl/6 mice) | intestinal injury (C57Bl/6 mice; [3]) | intestinal injury (C57Bl/6 mice; [4]) | intestinal injury (C57Bl/6 mice; [5])
H-IHFYCKNKEKKCSYTVEAHCRDGTI-OH (cysteine pairing not given here) [peptide 296] | − | attenuated; also recorded: blocked | − | attenuated mucosal damage | inhibited | − | attenuated; also recorded: inhibit | − | significantly decreased C3 deposition; also recorded: attenuated complement activation |  |  |  |  |  |  | 
H-IHFYSKNKEKKSSYTVEAHSRDGTI-OH [peptide 296Cys-Ser] | − | attenuated; also recorded: blocked | − | attenuated mucosal damage; also recorded: confirmed to attenuate injury | inhibited | − | attenuated; also recorded: inhibit | − | significantly decreased C3 deposition; also recorded: attenuated complement activation | attenuated | optimally attenuated | attenuate actual epithelial injury more effectively | effective for attenuating | attenuated | effective in preventing intestinal injury | significantly decreased
H-IPSCFKEHSSLAFWKTDASELTPC-NH2 (cysteine pairing not given here) [peptide 322, 18] | + | sustained inflammation similar to untreated mice | + | IR-induced intestinal damage similar to untreated mice |  | + | did not inhibit | + | did not significantly inhibit C3 deposition |  |  |  |  |  |  | 
H-KKCSYTVEAHCRDGTIEIPSCFKEHS-OH (cysteine pairing not given here) [peptide 305, 10] | + | did not attenuate | − | attenuated mucosal damage | inhibited | − | attenuated; also recorded: inhibited | − | not significantly different from either Sham or IR treatment; also recorded: attenuated complement activation |  | optimally attenuated |  | effective for attenuating | attenuated | effective in preventing intestinal injury | significantly decreased
H-KNISFACNPGFFLNG-NH2 [peptide 100, 16, reference compound] | + | sustained inflammation similar to untreated mice | + | IR-induced intestinal damage similar to untreated mice |  | +/− |  | + | did not significantly inhibit C3 deposition |  |  |  |  |  |  | 
